Source: ChEMBL document CHEMBL1152235, “(3R)-3-amino-4-(2,4,5-trifluorophenyl)-N-{4-[6-(2-methoxyethoxy)benzothiazol-2-yl]tetrahydropyran-4-yl}butanamide as a potent dipeptidyl peptidase IV inhibitor for the treatment of type 2 diabetes” (Bioorg Med Chem Lett, 2008)
Activity calls are given as the source filed them. No cut-off for these calls is given here.

System: not given
Conditions: human, microsomes

Row | SMILES | CL [µL/min/mg]
1 | N[C@@H](CC(=O)NC1(c2nc3ccc(OCCN4CCOCC4)cc3s2)CCS(=O)(=O)CC1)Cc1cc(F)c(F)cc1F | 92.8
2 | C[C@]12CC[C@H]3[C@@H](CCC4=CC(=O)CC[C@@]43C)[C@@H]1CC[C@@H]2O [TESTOSTERONE] | 109.3
3 | N[C@@H](CC(=O)NC1(c2nc3ccccc3s2)CCS(=O)(=O)CC1)Cc1ccccc1F | 34.6
4 | COCCOc1ccc2nc(C3(NC(=O)C[C@H](N)Cc4cc(F)c(F)cc4F)CCOCC3)sc2c1 | 21.9
5 | COc1ccc2nc(C3(NC(=O)C[C@H](N)Cc4cc(F)c(F)cc4F)CCS(=O)(=O)CC3)sc2c1 | 32.3
6 | COCCOc1ccc2nc(C3(NC(=O)C[C@H](N)Cc4cc(Cl)ccc4F)CCOCC3)sc2c1 | 34.2
7 | COc1ccc2nc(C3(NC(=O)C[C@H](N)Cc4ccccc4F)CCS(=O)(=O)CC3)sc2c1 | 26.2
8 | N[C@@H](CC(=O)NC1(c2nc3ccccc3s2)CCS(=O)(=O)CC1)Cc1cc(F)c(F)cc1F | 39.9
9 | COCCOc1ccc2nc(C3(NC(=O)C[C@H](N)Cc4cc(Cl)ccc4F)CCS(=O)(=O)CC3)sc2c1 | 63.8
10 | COCCOc1ccc2nc(C3(NC(=O)C[C@H](N)Cc4cc(F)c(F)cc4F)CCS(=O)(=O)CC3)sc2c1 | 46.6

System: not given
Conditions: rat, microsomes

Row | SMILES | CL [µL/min/mg]
11 | N[C@@H](CC(=O)NC1(c2nc3ccc(OCCN4CCOCC4)cc3s2)CCS(=O)(=O)CC1)Cc1cc(F)c(F)cc1F | 26
12 | C[C@]12CC[C@H]3[C@@H](CCC4=CC(=O)CC[C@@]43C)[C@@H]1CC[C@@H]2O [TESTOSTERONE] | 375.6
13 | N[C@@H](CC(=O)NC1(c2nc3ccccc3s2)CCS(=O)(=O)CC1)Cc1ccccc1F | 73.4
14 | COCCOc1ccc2nc(C3(NC(=O)C[C@H](N)Cc4cc(F)c(F)cc4F)CCOCC3)sc2c1 | 49.6
15 | COc1ccc2nc(C3(NC(=O)C[C@H](N)Cc4cc(F)c(F)cc4F)CCS(=O)(=O)CC3)sc2c1 | 42.3
16 | COCCOc1ccc2nc(C3(NC(=O)C[C@H](N)Cc4cc(Cl)ccc4F)CCOCC3)sc2c1 | 98.1
17 | COc1ccc2nc(C3(NC(=O)C[C@H](N)Cc4ccccc4F)CCS(=O)(=O)CC3)sc2c1 | 51.5
18 | N[C@@H](CC(=O)NC1(c2nc3ccccc3s2)CCS(=O)(=O)CC1)Cc1cc(F)c(F)cc1F | 64.4
19 | COCCOc1ccc2nc(C3(NC(=O)C[C@H](N)Cc4cc(Cl)ccc4F)CCS(=O)(=O)CC3)sc2c1 | 31.5
20 | COCCOc1ccc2nc(C3(NC(=O)C[C@H](N)Cc4cc(F)c(F)cc4F)CCS(=O)(=O)CC3)sc2c1 | 21.9

System: not given
Conditions: mouse, microsomes

Row | SMILES | CL [µL/min/mg]
21 | N[C@@H](CC(=O)NC1(c2nc3ccc(OCCN4CCOCC4)cc3s2)CCS(=O)(=O)CC1)Cc1cc(F)c(F)cc1F | 34.5
22 | C[C@]12CC[C@H]3[C@@H](CCC4=CC(=O)CC[C@@]43C)[C@@H]1CC[C@@H]2O [TESTOSTERONE] | 312.6
23 | COCCOc1ccc2nc(C3(NC(=O)C[C@H](N)Cc4cc(F)c(F)cc4F)CCOCC3)sc2c1 | 22.1
24 | COCCOc1ccc2nc(C3(NC(=O)C[C@H](N)Cc4cc(Cl)ccc4F)CCOCC3)sc2c1 | 28.6
25 | COCCOc1ccc2nc(C3(NC(=O)C[C@H](N)Cc4cc(Cl)ccc4F)CCS(=O)(=O)CC3)sc2c1 | 33
26 | COCCOc1ccc2nc(C3(NC(=O)C[C@H](N)Cc4cc(F)c(F)cc4F)CCS(=O)(=O)CC3)sc2c1 | 34.1

System: Mus musculus
Experiment: Reduction in blood glucose excursion in ICR mouse at 30 mg/kg, po administered 30 mins prior to glucose challenge by glucose tolerance test
Type: functional, organism-based
Design: dose 30 mg/kg
Conditions: not given

Row | SMILES | Activity
27 | COCCOc1ccc2nc(C3(NC(=O)C[C@H](N)Cc4cc(F)c(F)cc4F)CCOCC3)sc2c1 | Active

System: Rattus norvegicus
Experiment: Inhibition of DPP4 in po dosed Sprague-Dawley rat plasma
Type: functional
Conditions: not given

Row | SMILES | Activity
28 | COCCOc1ccc2nc(C3(NC(=O)C[C@H](N)Cc4cc(F)c(F)cc4F)CCOCC3)sc2c1 | Dose-dependent effect

Same assay, conditions: read-out: ID50 (the source's name)

Row | SMILES | ED50 [mg/kg]
29 | COCCOc1ccc2nc(C3(NC(=O)C[C@H](N)Cc4cc(F)c(F)cc4F)CCOCC3)sc2c1 | 2.7
